# According to paper PMC10321287, “β-amyloid binds to microglia Dectin-1 to induce inflammatory response in the pathogenesis of Alzheimer's disease” (International Journal of Biological Sciences, 2023):
# How the values were obtained:
# Dectin-1 [1] = assay: Co-IP of APP/β-amyloid and Dectin-1 in brain lysates; type: binding, mice; conditions: lysates from WT and Aβ42 brain tissues, Protein A magnetic beads
# Method: The triggering receptor expressed on myeloid cells 2 (Trem2) is a microglial surface receptor genetically linked to the risk of AD [28]. Most Aβ functions in microglia are thought to be mediated by its binding to Trem2 [29]. […] Trem2 is the currently reported microglia receptor that can directly bind to Aβ, and we used it as a positive control in this experiment. […] Next, we performed a protein interaction analysis using Co-IP. APP/β-amyloid was added to Protein A magnetic beads as a bait protein, and lysates from WT and Aβ42 brain tissues were added. […] In turn, we could also capture the expression of APP/β-amyloid protein using Dectin-1 as a bait protein (Figure 6C). […] Therefore, we used surface plasmon resonance (SPR) to identify direct Aβ42-Dectin-1 interactions at the molecular level. […] Nuclei are counterstained with DAPI (blue) [scale bar = 5 μm]. (B) Bio-Aβ42 is added to streptavidin-agarose beads and incubated. Biotin alone was used as control. Lysates prepared from BV2 cells were added to beads. The eluent was loaded onto a polyacrylamide gel for western blot analysis. Total lysates were used as input controls. Trem2 was used as a positive control. (C) The Dectin-1-APP/ β-amyloid interaction is analyzed by co-immunoprecipitation in the brains of WT and model mice. […] Mean KD constant derived from five separate experiments. (E) 3D binding model of dectin-1 and amyloid beta peptide. […]
# Dectin-1 [2] = assay: Pull-down with Bio-Aβ42 from BV2 lysates; type: binding; conditions: 100 µL of 20 μM biotinylated Aβ42 on streptavidin-agarose beads, lysate 24 h at 4°C; biotin control; Trem2 positive control
# Method: Lysates prepared from microglia cells and mouse brain tissues were then added to the streptavidin-agarose beads with biotinylated- Aβ42. The mixture was incubated for 24h at 4°C under gentle rocking. Samples were then spun and washed 3 times. Then, 5x loading buffer was added in the elution buffer and boiled for 10min, and the samples were used for western blot analysis. Total lysates were used as an input control.
# Nuclei are counterstained with DAPI (blue) [scale bar = 5 μm]. (B) Bio-Aβ42 is added to streptavidin-agarose beads and incubated. Biotin alone was used as control. Lysates prepared from BV2 cells were added to beads. The eluent was loaded onto a polyacrylamide gel for western blot analysis. Total lysates were used as input controls. Trem2 was used as a positive control. (C) The Dectin-1-APP/ β-amyloid interaction is analyzed by co-immunoprecipitation in the brains of WT and model mice. […] Mean KD constant derived from five separate experiments. (E) 3D binding model of dectin-1 and amyloid beta peptide. The backbones of dectin-1 and amyloid beta peptide are shown as cartoons. The residues in dectin-1 are shown as cyan sticks, whereas the residues in amyloid beta-peptide are shown as wheat sticks. The hydrogen bonds are depicted as red dashed lines and the salt bridges are depicted as blue dashed lines.
# Syk = Syk phosphorylation in BV2 cells (western blot); type: cell-based; conditions: 20 µM Bio-Aβ42, 45 min
# Source text: (§1) GAPDH was used as loading control. […] GAPDH was used as loading control. […] GAPDH was used as loading control. […] GAPDH was used as loading control.
# BV2 cells = assay: Microglia phagocytosis and clearance of FITC-Aβ42 (flow cytometry); type: cell-based; conditions: 20 μM FITC-Aβ42, 2 h (phagocytosis) then 24 h in FITC-Aβ-free medium (clearance), Dectin-1-deficient BV2 cells
# Method: After incubation, the medium containing FITC-Aβ was removed, and the cells were washed three times with 1xPBS. BV2 cells were collected by centrifugation at 3000rpm for 5min, and resuspended in ice-cold 1xPBS solution. […] Cells were cultured in the FITC-Aβ-free medium for another 24 hours. Collect the cells and detect the level of intracellular Aβ by flow cytometry.
# TNF-α and IL-1β = TNF-α and IL-1β release from BV2 cells (ELISA); type: cell-based; conditions: Aβ42-stimulated BV2 cells, cell supernatant
# Method: After behavior test, blood samples from each group of mice were collected. Serum was obtained by centrifuge at 12000 rpm for 10 min and the levels of TNF-α and IL-1β were measured using ELISA kits. Briefly, samples were added to the wells with a biotin-conjugated antibody specific to TNF-α or IL-1β. Then, Avidin conjugated to Horseradish Peroxidase (HRP) was added to each microplate well and incubated. […] Finally, stop solution was added to stop the reaction and the color change were measured at a wavelength of 450 nm by a microplate reader. The concentration of TNF-α or IL-1β in the samples were then determined by comparing the OD value of the samples to the standard curve.
# (§2) Figure 5 Dectin-1 interference prevents Aβ42-induced inflammatory response in BV2 cells. (A) Time-course of Dectin-1-Syk interaction. […] (B) HEK-293T cells were transfected with Flag-tagged Dectin-1 (Flag-D1) and HA-tagged Dectin-1 (HA-D1). […] (C) Time-course of Syk phosphorylation. […] Total proteins were extracted and probed for p-Syk and Syk levels. GAPDH was used as loading control. (D) Dose-course of Syk phosphorylation. […] Total proteins were used to measure p-Syk and Syk levels. GAPDH was used as loading control. (E) Determination of Dectin-1 interference efficiency in BV2 cells. […] (H) TNFα release in cell supernatant measured by ELISA. (I) IL-1β release in in cell supernatant measured by ELISA. […]
# PC12 cells = assay: PC12 damage by BV2-conditioned medium; type: cell-based; conditions: medium of Dectin-1-deficient BV2 cells exposed to Aβ42, PC12 treated 24 h
# Method: To test cellular apoptosis, TUNEL assay was performed (C1098, Beyotime, Shanghai, China). For cells: Properly treated BV2 cells were fixed with 4% PFA for 20 min and washed with PBST for 3 times. Then cells were incubated with TUNEL test solution (5 μl of TdT enzyme and 45 μl of fluorescent labeling solution) under dark condition for 1h. After washing with 1xPBS for three times, nuclei were stained with DAPI. The apoptotic cells (green fluorescence) were observed under fluorescent microscopy and calculated as a percentage of the total number of cells. For brain tissue: Processed tissue samples were incubated with 50 μl of TUNEL reaction mixture for 1h at 37℃ under dark conditions. Color developed in DAB coloring solution. Apoptosis index (brown color) in the hippocampus area were measured using this formula: apoptosis index (%) = (apoptotic neurons / total neurons) × 100%.
# [3] = tested on: Tnfa, Il1b, IL-6, Cox2, and Inos; assay: mRNA levels of inflammatory genes (real-time qPCR); type: cell-based; conditions: Aβ42-stimulated, normalized to GAPDH
# Method: Total RNA was isolated from cultured BV2 cells and brain tissues using TRIzol reagent (Thermo Fisher, 15596026) by standard techniques. Total RNA concentration was measured by a spectrophotometer. Then, PrimeScript RT-reagent Kit (Takara, RR037A) was used for cDNA synthesis. Real-time PCR amplification reactions were carried out on CFX96 Touch Real-Time PCR Detection System (Bio-Rad) using TB Green Premix Ex Taq II (Takara; RR820A). Quantification of the mRNA expression was calculated by […] method with GAPDH normalization. Primer sequences used in this study were presented in Supplementary Table S2.
# Figure 5 Dectin-1 interference prevents Aβ42-induced inflammatory response in BV2 cells. (A) Time-course of Dectin-1-Syk interaction. […] (B) HEK-293T cells were transfected with Flag-tagged Dectin-1 (Flag-D1) and HA-tagged Dectin-1 (HA-D1). […] (C) Time-course of Syk phosphorylation. […] Total proteins were extracted and probed for p-Syk and Syk levels. GAPDH was used as loading control. (D) Dose-course of Syk phosphorylation. […] Total proteins were used to measure p-Syk and Syk levels. GAPDH was used as loading control. (E) Determination of Dectin-1 interference efficiency in BV2 cells. Total proteins were extracted and probed for p-Syk and Syk levels. […] (H) TNFα release in cell supernatant measured by ELISA. (I) IL-1β release in in cell supernatant measured by ELISA. […]
# Syk/NF-κB = Syk/NF-κB activation in BV2 cells (western blot); type: cell-based; conditions: Aβ42-stimulated BV2 cells, siRNA targeting Dectin-1
# Source text: as §1
# NF-κB p65 = assay: p65 nuclear translocation in BV2 cells (immunofluorescence); type: cell-based; conditions: Aβ42-stimulated BV2 cells, siRNA targeting Dectin-1
# Method: Properly treated BV2 cells were fixed in 4% paraformaldehyde (PFA) for 15-20 min. The BV2 cells were then incubated with 1x PBS containing 0.1% Triton X-100 (PBST) for 20 min to increase membrane permeability. After block with 1% BSA for 1 h at room temperature, the primary antibody (1:100) was added and incubate overnight at 4 °C. Next day, the cells were washed three times with 1xPBS and incubated with fluorophore conjugated secondary antibody (1:500) for 2h. Finally, one drop of antifade mounting medium with DAPI (P0131, Beyotime) was added to stain the Nuclei. Then, sections were observed and analyzed under a Nikon A1 confocal microscope.
# as §2
substance,measurement,setting,value
APP/β-amyloid: APP/β-amyloid protein used as bait with lysates from WT and Aβ42 brain tissues,binding to Dectin-1 (co-IP),Dectin-1 [1],binds to the Dectin-1 protein in these lysates
"Bio-Aβ42: biotin-labeled Amyloid beta peptide, obtained from GL Biochem",binding to Dectin-1 (pull-down/Co-IP),Dectin-1 [2],Co-IP analysis further confirmed this result
same,Syk phosphorylation by Bio-Aβ42,Syk,"retained the Dectin-1 activating activity of Aβ42, as evidenced by the increased phosphorylation of Syk"
FITC-Aβ42: Aβ42 linked with a FITC label,"phagocytosis and clearance of FITC-Aβ42, effect of Dectin-1 deficiency",BV2 cells,did not affect the fluorescence intensity of Aβ
"siD1: siRNA targeting Dectin-1 gene; sense 5’-GGAGAAAUCCAGAGGAGAATT-3’, antisense 5’-UUCUCCUCUGGAUUUCUCCTT-3’ (chemistry not given here)",TNF-α and IL-1β release after Dectin-1 knockdown,TNF-α and IL-1β,decreased the release of the inflammatory factors TNF-α and IL-1β
same,PC12 damage by medium of siD1-treated microglia,PC12 cells,failed to damage PC12 cells
same,"mRNA levels of inflammatory genes Tnfa, Il1b, IL-6, Cox2, Inos",[3],significantly reversed
same,Syk/NF-κB activity after Dectin-1 knockdown,Syk/NF-κB,this increased activity of Syk/NF-κB was not seen in Dectin-1-deficient BV2 cells
same,p65 nuclear translocation after Dectin-1 knockdown,NF-κB p65,remarkably inhibited Aβ42-induced p65 nuclear translocation
